Assay results as given in PubChem BioAssay (NCI).
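48-hour exposure; five concentrations; linearly interpolated endpoints. At the GI50, growth is halved. TGI denotes the concentration required for complete inhibition of growth.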

Assays:
Experiment in all cases: NCI tumour cell line growth inhibition, 48 h; in the data active = GI50 below about 0.43 µM; inactive = the rest
786-0 renal = tested on: 786-0 renal
A498 renal = tested on: A498 renal
A549 NSCLC = tested on: A549 NSCLC
BT-549 breast = tested on: BT-549 breast
COLO 205 colon = tested on: COLO 205 colon
DU-145 prostate = tested on: DU-145 prostate
EKVX NSCLC = tested on: EKVX NSCLC
HCC-2998 colon = tested on: HCC-2998 colon
HCT-116 colon = tested on: HCT-116 colon
HCT-15 colon = tested on: HCT-15 colon
HL-60(TB) leukemia = tested on: HL-60(TB) leukemia
HOP-62 NSCLC = tested on: HOP-62 NSCLC
HS 578T breast = tested on: HS 578T breast
IGROV1 ovarian = tested on: IGROV1 ovarian
K-562 leukemia = tested on: K-562 leukemia
LOX IMVI melanoma = tested on: LOX IMVI melanoma
M14 melanoma = tested on: M14 melanoma
MALME-3M melanoma = tested on: MALME-3M melanoma
MDA-MB-231 breast = tested on: MDA-MB-231 breast
MDA-MB-435 = tested on: MDA-MB-435
NCI-H226 lung = tested on: NCI-H226 lung
NCI/ADR-RES ovarian = tested on: NCI/ADR-RES ovarian
OVCAR-3 ovarian = tested on: OVCAR-3 ovarian
OVCAR-4 ovarian = tested on: OVCAR-4 ovarian
OVCAR-5 ovarian = tested on: OVCAR-5 ovarian
OVCAR-8 ovarian = tested on: OVCAR-8 ovarian
PC-3 prostate = tested on: PC-3 prostate
RXF 393 renal = tested on: RXF 393 renal
SF-268 CNS = tested on: SF-268 CNS
SF-295 CNS = tested on: SF-295 CNS
SF-539 CNS = tested on: SF-539 CNS
SK-MEL-2 melanoma = tested on: SK-MEL-2 melanoma
SK-MEL-28 melanoma = tested on: SK-MEL-28 melanoma
SK-MEL-5 melanoma = tested on: SK-MEL-5 melanoma
SK-OV-3 ovarian = tested on: SK-OV-3 ovarian
SN12C renal = tested on: SN12C renal
SNB-19 CNS = tested on: SNB-19 CNS
SNB-75 CNS = tested on: SNB-75 CNS
SW-620 colon = tested on: SW-620 colon
TK-10 renal = tested on: TK-10 renal
U251 CNS = tested on: U251 CNS
UACC-257 melanoma = tested on: UACC-257 melanoma
UACC-62 melanoma = tested on: UACC-62 melanoma
UO-31 renal = tested on: UO-31 renal
HOP-92 NSCLC = tested on: HOP-92 NSCLC
NCI-H23 lung = tested on: NCI-H23 lung
CAKI-1 renal = tested on: CAKI-1 renal

Cc1ccc(C)c(-n2c(-c3ccc(Br)cc3)csc2=NC(=O)c2ccccc2F)c1
> 100 µM: TGI (786-0 renal) | TGI (A498 renal) | TGI (A549 NSCLC) | TGI (BT-549 breast) | TGI (COLO 205 colon) | TGI (DU-145 prostate) | TGI (EKVX NSCLC) | TGI (HCC-2998 colon) | TGI (HCT-116 colon) | TGI (HCT-15 colon) | TGI (HL-60(TB) leukemia) | TGI (HOP-62 NSCLC) | TGI (HS 578T breast) | TGI (IGROV1 ovarian) | TGI (K-562 leukemia) | TGI (LOX IMVI melanoma) | TGI (M14 melanoma) | TGI (MALME-3M melanoma) | TGI (MDA-MB-231 breast) | TGI (MDA-MB-435) | TGI (NCI-H226 lung) | TGI (NCI/ADR-RES ovarian) | TGI (OVCAR-3 ovarian) | TGI (OVCAR-4 ovarian) | TGI (OVCAR-5 ovarian) | TGI (OVCAR-8 ovarian) | TGI (PC-3 prostate) | TGI (RXF 393 renal) | TGI (SF-268 CNS) | TGI (SF-295 CNS) | TGI (SF-539 CNS) | TGI (SK-MEL-2 melanoma) | TGI (SK-MEL-28 melanoma) | TGI (SK-MEL-5 melanoma) | TGI (SK-OV-3 ovarian) | TGI (SN12C renal) | TGI (SNB-19 CNS) | TGI (SNB-75 CNS) | TGI (SW-620 colon) | TGI (TK-10 renal) | TGI (U251 CNS) | TGI (UACC-257 melanoma) | TGI (UACC-62 melanoma) | TGI (UO-31 renal)
inactive: GI50 (786-0 renal) > 100 µM | GI50 (A498 renal) > 100 µM | GI50 (A549 NSCLC) > 100 µM | GI50 (BT-549 breast) > 100 µM | GI50 (COLO 205 colon) > 100 µM | GI50 (DU-145 prostate) > 100 µM | GI50 (EKVX NSCLC) > 100 µM | GI50 (HCC-2998 colon) > 100 µM | GI50 (HCT-116 colon) 3.1 µM | GI50 (HCT-15 colon) > 100 µM | GI50 (HL-60(TB) leukemia) 2.82 µM | GI50 (HOP-62 NSCLC) > 100 µM | GI50 (HS 578T breast) > 100 µM | GI50 (IGROV1 ovarian) > 100 µM | GI50 (K-562 leukemia) 3.47 µM | GI50 (LOX IMVI melanoma) > 100 µM | GI50 (M14 melanoma) > 100 µM | GI50 (MALME-3M melanoma) > 100 µM | GI50 (MDA-MB-231 breast) > 100 µM | GI50 (MDA-MB-435) > 100 µM | GI50 (NCI-H226 lung) > 100 µM | GI50 (NCI/ADR-RES ovarian) > 100 µM | GI50 (OVCAR-3 ovarian) > 100 µM | GI50 (OVCAR-4 ovarian) 9.57 µM | GI50 (OVCAR-5 ovarian) > 100 µM | GI50 (OVCAR-8 ovarian) > 100 µM | GI50 (PC-3 prostate) 3.29 µM | GI50 (RXF 393 renal) > 100 µM | GI50 (SF-268 CNS) > 100 µM | GI50 (SF-295 CNS) 52.4 µM | GI50 (SF-539 CNS) > 100 µM | GI50 (SK-MEL-2 melanoma) > 100 µM | GI50 (SK-MEL-28 melanoma) > 100 µM | GI50 (SK-MEL-5 melanoma) 2.62 µM | GI50 (SK-OV-3 ovarian) > 100 µM | GI50 (SN12C renal) > 100 µM | GI50 (SNB-19 CNS) > 100 µM | GI50 (SNB-75 CNS) > 100 µM | GI50 (SW-620 colon) > 100 µM | GI50 (TK-10 renal) > 100 µM | GI50 (U251 CNS) > 100 µM | GI50 (UACC-257 melanoma) > 100 µM | GI50 (UACC-62 melanoma) > 100 µM | GI50 (UO-31 renal) > 100 µM

CO/N=C1\CC(C)N2C(=O)C(C(C)C)NC(=O)C(NC(=O)c3c4nc5c(C(=O)NC6C(=O)NC(C(C)C)C(=O)N7C(C)CC(O)C7C(=O)N(C)CC(=O)N(C)C(C(C)C)C(=O)OC6C)ccc(C)c5oc-4c(C)c(=O)c3N)C(CO)OC(=O)C(C)N(C)C(=O)CN(C)C(=O)C12 (configuration not stated)
17 µM: TGI (BT-549 breast)
4.31 µM: TGI (UACC-257 melanoma)
3.81 µM: TGI (NCI-H226 lung)
14.5 µM: TGI (NCI-H23 lung)
16.9 µM: TGI (HOP-92 NSCLC)

O=C1c2[nH]cc(CN[C@@H]3CCCN3)c2C(=O)c2c1c(O)c1ccccc1c2O
1.52 µM: TGI (UO-31 renal)
3 µM: TGI (M14 melanoma)
2.58 µM: TGI (UACC-62 melanoma)
2.87 µM: TGI (CAKI-1 renal)
2.04 µM: TGI (DU-145 prostate)
2.67 µM: TGI (SF-539 CNS)
1.25 µM: TGI (SF-295 CNS)
1.78 µM: TGI (SK-OV-3 ovarian)
2.29 µM: TGI (TK-10 renal)
3.07 µM: TGI (MALME-3M melanoma)
1.84 µM: TGI (MDA-MB-231 breast)
1.65 µM: TGI (HOP-92 NSCLC)
16.3 µM: TGI (A498 renal)
active: GI50 (HOP-92 NSCLC) 0.19 µM | GI50 (IGROV1 ovarian) 0.262 µM | GI50 (PC-3 prostate) 0.358 µM | GI50 (SF-295 CNS) 0.288 µM | GI50 (UO-31 renal) 0.261 µM
1.51 µM: TGI (PC-3 prostate)
1.02 µM: TGI (IGROV1 ovarian)
30.6 µM: TGI (NCI/ADR-RES ovarian)
38.4 µM: TGI (BT-549 breast)
inactive: GI50 (A498 renal) 0.544 µM | GI50 (BT-549 breast) 4.67 µM | GI50 (CAKI-1 renal) 0.927 µM | GI50 (DU-145 prostate) 0.786 µM | GI50 (M14 melanoma) 1.58 µM | GI50 (MALME-3M melanoma) 1.59 µM | GI50 (MDA-MB-231 breast) 0.527 µM | GI50 (NCI/ADR-RES ovarian) 3.88 µM | GI50 (SF-539 CNS) 1.36 µM | GI50 (SK-OV-3 ovarian) 0.583 µM | GI50 (TK-10 renal) 1.07 µM | GI50 (UACC-62 melanoma) 1.29 µM
